How the values were obtained:
[1] = Hydrolysis and aspirin release in buffered human plasma solution (HPLC); settings: for aspirin production / aspirin produced: 50% human plasma
[2] = tested on: human platelet aggregation to arachidonic acid; assay: Human platelet aggregation to arachidonic acid in platelet rich plasma; assay type: cell-based; settings: Homo sapiens, platelet rich plasma
Method: (§1) Blood was collected from healthy volunteers who had not taken any drugs known to affect platelet function for at least 14 days prior to the study. Platelet rich plasma (PRP) and washed platelet suspensions (2.5×10^8 platelets/ml) were prepared from blood as previously described.
(§2) Platelet aggregation was measured by light aggregometry as previously described. Briefly, PRP and washed platelet samples (2.5×10^8/ml) were placed in a whole blood ionized calcium lumi-aggregometer (Chronolog Corp., Havertown, Pa., U.S.A), and (BIO/DATA CORPORATION) and incubated for 10 min at 37° C., with stirring at 900 r.p.m., prior to the addition of aggregating agents. Aggregation was initiated by the addition of agonists, and monitored by Aggro-Link software for at least 6 min. For experiments using inhibitors, aggregation was initiated after 10 min preincubation with these compounds

[3] = tested on: platelet aggregation in human whole blood; assay: Whole blood aggregation studies (impedance method); assay type: cell-based; settings: Homo sapiens, Platelet; arachidonic acid; impedance method; read-out: IC50, platelet aggregation towards arachidonic acid in human whole blood
Method: A 500 μl aliquot of blood was mixed with 500 μl of physiological saline and allowed to incubate at 37° C. for 10 mins in the incubation well of a Chrono-Log Whole Blood Aggregometer model 591/592. The sample was then transferred to the assay well, baseline was established and appropriate volume of reagent as above was added. Aggregation was monitored over 6 mins with impedance output recorded on a chart recorder. When testing inhibitors whole blood was pre-incubated with appropriate concentrations of inhibitor in DMSO at 37° C. for a specified length of time before adding the stimulant (10 mins with stirring). Three different aggregating agents, AA (0.5 mM), ADP (10 μM) and Collagen (5 μg/ml) were used. […] DMSO in high concentrations (above 0.25%) can induce a concentration dependent change in platelet cytoplasmic ionised calcium. Before each experiment a control was run using PRP to obtain normal aggregating responses. A sample was also incubated for 10 min at 37° C. with 10 μl DMSO to ensure it was having no inhibitory effect on the aggregation response.

GPIIb/IIIa = assay: Flow cytometry of activated GPIIb/IIIa (PAC-1) on platelets; assay type: cell-based, human
Method: In order to analyze receptor expression on the surface of individual platelets and to minimize platelet activation caused by sample preparation procedures, no stirring or vortexing steps were used. The abundance of activated GPIIb/IIIa and P-selectin on the surface of platelets in the presence and absence of inhibitors was measured by flow cytometry. Platelet samples were first activated with agonists either collagen or ADP. When platelet aggregation reached 50% maximal light transmission the reaction was terminated by 10-fold dilution with physiologic saline. Resting platelets were used as control. In most of the experiments, platelets were preincubated with inhibitors for 10 min prior to the addition of agonists. Platelet samples were then incubated in the dark without stirring for 5 min at room temperature in the presence of saturating concentrations (10 μg/ml) of P-selectin (CD62P-APC). The activated GPIIb/IIIa platelet receptors were measured using PAC-1 monoclonal antibody at the same concentration as above. PAC-1 specifically recognizes an epitope on the high-affinity GPIIb/IIIa complex of activated platelets at or near the […]. Following incubation, samples were diluted in FACS Flow fluid and analyzed within 5 min using a BD FACSArray (BD Biosciences, Oxford, UK). Flow cytometry was performed on single stained platelet samples as described before^3. The instrument was set up to measure the size (forward scatter), granularity (side scatter) and cell fluorescence. A two-dimensional analysis gate of forward and side scatter was drawn in order to include single platelets and exclude platelet aggregates and microparticles. Antibody binding was measured by analyzing individual platelets for fluorescence. The mean fluorescence intensity was determined after correction for cell autofluorescence. For each sample, the fluorescence was analyzed using a logarithmic scale. Fluorescence histograms were obtained for 10,000 individual events. Data were analyzed using Cytometer RXP software and expressed as a percentage of control fluorescence in arbitrary units.

[4] = cited from earlier work
[5] = in vivo; cited from earlier work
[6] = tested on: collagen-induced human platelet aggregation; assay: Collagen-induced human platelet aggregation in vitro; assay type: cell-based
Method: as §1, §2
(§3) Collagen at different concentrations (3-5 ug/ml) was also used to induce platelet aggregation. The submaximal concentrations of agonists, i.e. the concentrations that gave approximately 95% of the maximal aggregation were used to study the effects of inhibitors of aggregation. Results were expressed in percent changes in maximal light transmission, with 100% representing light transmission of platelet medium alone.

[7] = tested on: ADP-induced platelet aggregation; assay: ADP-induced platelet aggregation in PRP; assay type: cell-based, human
Method: as §1, §2, §3

[8] = human, 2.4 µM, pH 7.4
[9] = target: horse plasma butyrylcholinesterase (Equus caballus, UniProt P81908); settings: cited from earlier work
horse plasma butyrylcholinesterase, sequence (P81908 whole entry): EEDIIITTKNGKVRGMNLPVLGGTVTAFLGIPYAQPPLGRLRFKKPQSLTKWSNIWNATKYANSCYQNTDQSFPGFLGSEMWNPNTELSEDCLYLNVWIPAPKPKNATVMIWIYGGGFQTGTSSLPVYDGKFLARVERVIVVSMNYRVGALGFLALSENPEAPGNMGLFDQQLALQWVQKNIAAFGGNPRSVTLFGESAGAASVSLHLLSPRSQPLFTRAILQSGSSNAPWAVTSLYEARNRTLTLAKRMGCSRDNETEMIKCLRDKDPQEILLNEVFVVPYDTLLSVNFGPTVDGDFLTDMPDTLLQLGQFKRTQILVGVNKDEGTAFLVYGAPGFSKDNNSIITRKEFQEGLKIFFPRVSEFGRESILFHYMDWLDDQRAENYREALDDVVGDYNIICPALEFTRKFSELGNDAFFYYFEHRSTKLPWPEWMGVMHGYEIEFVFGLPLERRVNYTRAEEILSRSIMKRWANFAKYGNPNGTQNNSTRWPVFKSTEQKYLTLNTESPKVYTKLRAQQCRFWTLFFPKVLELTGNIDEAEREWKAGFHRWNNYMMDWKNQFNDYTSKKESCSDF

[10] = target: T1, purified human serum BuChE (Homo sapiens, UniProt P06276); assay: Hydrolysis by purified human serum butyrylcholinesterase; assay type: in vitro ADME; settings: Purified human serum (0.15 mg/ml); conc drug 0.12 mM
T1 construct: Purified human serum butyrylcholinesterase (EC 3.1.1.8); purchased Sigma-Aldrich; host or cells: human serum
T1 sequence (P06276 29-602): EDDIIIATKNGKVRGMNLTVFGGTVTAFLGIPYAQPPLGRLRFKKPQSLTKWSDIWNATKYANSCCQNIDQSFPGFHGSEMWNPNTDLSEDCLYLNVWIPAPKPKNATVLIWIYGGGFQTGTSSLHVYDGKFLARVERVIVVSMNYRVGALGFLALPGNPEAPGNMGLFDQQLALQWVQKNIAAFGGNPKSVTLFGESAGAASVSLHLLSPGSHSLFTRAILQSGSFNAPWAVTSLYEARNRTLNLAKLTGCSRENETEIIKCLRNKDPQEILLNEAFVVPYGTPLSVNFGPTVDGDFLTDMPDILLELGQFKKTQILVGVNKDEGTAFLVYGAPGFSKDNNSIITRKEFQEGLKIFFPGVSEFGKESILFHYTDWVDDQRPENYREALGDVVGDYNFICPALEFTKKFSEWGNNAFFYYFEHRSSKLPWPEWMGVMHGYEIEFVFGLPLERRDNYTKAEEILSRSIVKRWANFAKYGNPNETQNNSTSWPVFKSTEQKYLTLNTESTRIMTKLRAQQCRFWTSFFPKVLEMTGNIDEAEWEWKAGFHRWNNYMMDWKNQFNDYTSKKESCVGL
Method: Pooled plasma/serum solutions (4 ml) were prepared to the correct strength by dilution of plasma with phosphate buffer pH 7.4 (e.g. for a 10% solution 0.4 ml of plasma/serum was added to 3.6 ml of phosphate buffer pH 7.4). Following equilibration of the plasma/serum sample at 37±0.5° C. 100 μl of a stock solution of test compound in acetonitrile (1×10^−4 M) was added and 250 μl aliquots were removed at specified time intervals. Samples were transferred to 1.5 ml Eppendorf tubes containing 500 μl of a 2% w/v solution of nSO4.7H2O (water:acetonitrile, 1:1). Tubes were vortexed for 2 minutes, then centrifuged at 10,000 rpm for 3 minutes at room temperature. Supernatant was aspirated off and analysed by HPLC. The concentration of test compound and metabolites were determined with reference to calibration curves run on that day in the same concentration range and under the same experimental conditions. In order to mimic conditions during the first passage of the drugs after intestinal absorption selected compounds were incubated in phosphate buffer at 37° C. in the presence of microsomes from human liver (HLM) and intestinal epithelium (HIM). The metabolic fate of the esters under these conditions was also determined by RPHPLC by measuring the concentration of drug and metabolites in the medium as a function of time. The identity of participating enzymes was confirmed by using purified enzyme in the case of plasma (BuChE) and by repeating the hydrolysis experiments in the presence of esterase specific inhibitors—isoOMPA for BuChE and BNPP for carboxylesterase. The BuChE activity of plasma and microsomal samples was determined using the Ellman assay (Ellman et al., 1964).

[11] = phosphate buffered human plasma solutions (Gilmer et al., 2002)

## CC(=O)Oc1ccccc1C(=O)O[C@H]1CO[C@H]2[C@@H]1OC[C@H]2O [Compound 17, Isosorbide-2-aspirinate-5-OH, reference compound]
[1]; 10% human plasma, pH 7.4, 37° C., peak aspirin as percentage of initial ester concentration in moles
  molar % aspirin released in 10% human plasma: 2.95%
[1]; 10% human plasma, phosphate buffer pH 7.4, 37° C.
  Half-life in 10% human plasma: 4.08 min
[1]; human plasma
  acts as aspirin prodrug in human plasma: is not an aspirin prodrug
[1]; human plasma, listed as 2-aspirinate
  acts as aspirin prodrug in human plasma: None of these acted as aspirin prodrugs

## Isosorbide-2-aspirinate-5-(2-nitrooxy-methyl)benzoate [Compound 31]
[1]
  aspirin production: 10.3 µM
[1]; drug 1×10^−4 M
  aspirin produced: 10.3 µM

## Isosorbide-2-aspirinate-5-[2-methylbenzoate] [Compound 1]
[1]; human plasma
  aspirin release (hydrolysis along the aspirin pathway) in human plasma: around 60%

## CC(=O)Oc1ccccc1C(=O)O[C@@H]1CO[C@H]2[C@@H]1OC[C@@H]2O [Compound 5-aspirinate, isosorbide-5-aspirinate, reference compound]
[1]; human plasma
  acts as aspirin prodrug in human plasma: None of these acted as aspirin prodrugs

## Isosorbide-2-aspirinate-5-(4-nitrooxy-methyl) benzoate [Compound 33]
[1]
  aspirin production: 2 µM
[1]; drug 1×10^−4 M
  aspirin produced: 2 µM

## CC(=O)Oc1ccccc1C(=O)O [aspirin]
[2]
  IC50: 5 µM
[3]
  IC50: 25 µM
GPIIb/IIIa; concentrations at which aspirin has no effect
  constitutive platelet glyco-protein expression: has no effect
GPIIb/IIIa; same concentration like ISAS (2) or nitrate compounds 31-32
  inhibition of platelets activation: failed to inhibit platelets activation
[4]; dilute plasma
  half-life in dilute plasma: around one
[5]
  half-life in the body: 20 min

## Isosorbide-2-aspirinate-5-(p-cyanobenzoate) [Compound 20]
[6]
  potency relative to aspirin, inhibition of collagen-induced human platelet aggregation: more potent than aspirin
[7]
  potency relative to aspirin, inhibition of ADP-induced platelet aggregation: more potent inhibitor

## CC(=O)Oc1ccccc1C(=O)O[C@H]1CO[C@H]2[C@@H]1OC[C@H]2OC(=O)c1ccccc1OC(C)=O [Compound 16, Isosorbide-di-aspirinate]
[8]
  hydrolysis along unproductive salicylate pathway: 40%
[4]; [11]
  aspirin produced in phosphate buffered human plasma solutions: approximately 60%
  hydrolysed along the unproductive salicylate pathway: 40%
[9]
  aspirin generated: 11%

## Isosorbide-2-aspirinate-5-(3-nitrooxy-methyl)benzoate [Compound 32]
[10]
  Aspirin: 15 µM
  Drug disappearace: 10 min
  Salicylic acid: 6 µM
[1]; 50% HP, conc drug 0.25 mM
  Aspirin: 26 µM
  Salicylic acid: 18 µM
[1]
  aspirin production: 26 µM
[1]; drug 2.5×10^−4 M
  aspirin produced: 26 µM
[1]; 80% HP, conc drug 0.1 mM
  Salicylic acid: 9 µM

Source: patent publication US8486974B2 (priority 2007, dated 2013)
